Source: patent publication US5324502A, “Radiopharmaceuticals for imaging the heart” (priority 1992, dated 1994)
Like-named read-outs stand apart in the source and are kept apart here.

Legend:
[1] = rat
Description: The gallium-67 complexes are prepared by ligand exchange from gallium-67 chloride, employing the tris(acetylacetonato)gallium(III) complex as an intermediate. The Ga-67 acetylacetonate in ethanol is reacted with the chelating ligand or ligand precursor at elevated temperature to form rapidly the desired gallium radiopharmaceutical. […] The biodistribution of several radiopharmaceuticals was determined in rats following intravenous injection using techniques previously described (M. A. Green, Nuclear Medicine and Biology 14:59-61, 1987; E. John and M. A. Green, J. Medicinal Chemistry, 33:1764-1770, 1990).
Under ether anesthesia, 1 to 3 μCi (0.1-0.2 mL) of no-carrier-added Ga-67 compound was administered by bolus injection into the femoral vein of male Sprague-Dawley rats. The ether anesthetized rats were sacrificed by decapitation at given time intervals post-injection, organs of interest were removed, weighed, and the gallium-67 activity counted. The biodistribution was calculated as a percentage of the injected dose per gram of tissue and percentage of injected dose per organ for each sample.

[2] = Octanol/water partition coefficient of radiolabeled gallium complexes; assay type: physicochemical
Description: Octanol/water partition coefficients were measured by vortex mixing 1 mL of 1-octanol and 1 mL of isotonic Tris buffer (pH 7.0) with a 1-5 μL sample of the radiolabeled gallium complex. Following centrifugation at >1200 g for 5 minutes, the octanol and aqueous phases were sampled and counted in an automatic well counter.

**Q.** What does the source list for `COc1cc([O-])c(C=NCCNCCNCCN=Cc2c([O-])cc(OC)cc2OC)c(OC)c1.[67Ga+3]` [(4,6-MeO2 Sal)2 TETA, ^67 GaL^+ L = [bis(4,6-dimethoxysalicylaldimino)-N,N'-triethylene-tetraamine]]?
**A.** % Injected Dose per Gram Tissue, Blood ([1]; i.v., 1 min): 1.90 ± 0.56 % Injected Dose per Gram Tissu; % Injected Dose per Gram Tissue, Brain ([1]; i.v., 1 min): 0.05 ± 0.01 % Injected Dose per Gram Tissu; % Injected Dose per Gram Tissue, Heart ([1]; i.v., 1 min): 0.76 ± 0.04 % Injected Dose per Gram Tissu; % Injected Dose per Gram Tissue, Kidney (one) ([1]; i.v., 1 min): 4.36 ± 0.27 % Injected Dose per Gram Tissu; % Injected Dose per Gram Tissue, Liver ([1]; i.v., 1 min): 1.88 ± 0.15 % Injected Dose per Gram Tissu; % Injected Dose per Gram Tissue, Lungs ([1]; i.v., 1 min): 0.97 ± 0.03 % Injected Dose per Gram Tissu; % Injected Dose per Gram Tissue, Spleen ([1]; i.v., 1 min): 0.35 ± 0.02 % Injected Dose per Gram Tissu; % Injected Dose per Organ, Blood ([1]; i.v., 1 min): 19.26 ± 2.97 % Injected Dose per Organ; % Injected Dose per Organ, Brain ([1]; i.v., 1 min): 0.07 ± 0.01 % Injected Dose per Organ; % Injected Dose per Organ, Heart ([1]; i.v., 1 min): 0.55 ± 0.04 % Injected Dose per Organ; % Injected Dose per Organ, Kidney (one) ([1]; i.v., 1 min): 3.83 ± 0.31 % Injected Dose per Organ; % Injected Dose per Organ, Liver ([1]; i.v., 1 min): 16.90 ± 1.70 % Injected Dose per Organ; % Injected Dose per Organ, Lungs ([1]; i.v., 1 min): 1.17 ± 0.23 % Injected Dose per Organ; % Injected Dose per Organ, Spleen ([1]; i.v., 1 min): 0.22 ± 0.01 % Injected Dose per Organ; % injected dose in heart, 1 min ([1]; i.v., 1 min, preliminary studies): 0.55 ± 0.04 % injected dose; % Injected Dose per Gram Tissue, Blood ([1]; i.v., 15 min): 0.71 ± 0.08 % Injected Dose per Gram Tissu; % Injected Dose per Gram Tissue, Brain ([1]; i.v., 15 min): 0.03 ± 0.01 % Injected Dose per Gram Tissu; % Injected Dose per Gram Tissue, Heart ([1]; i.v., 15 min): 0.53 ± 0.06 % Injected Dose per Gram Tissu; % Injected Dose per Gram Tissue, Kidney (one) ([1]; i.v., 15 min): 2.35 ± 0.41 % Injected Dose per Gram Tissu; % Injected Dose per Gram Tissue, Liver ([1]; i.v., 15 min): 2.42 ± 0.25 % Injected Dose per Gram Tissu; % Injected Dose per Gram Tissue, Lungs ([1]; i.v., 15 min): 0.51 ± 0.05 % Injected Dose per Gram Tissu; % Injected Dose per Gram Tissue, Spleen ([1]; i.v., 15 min): 0.18 ± 0.02 % Injected Dose per Gram Tissu; % Injected Dose per Organ, Blood ([1]; i.v., 15 min): 9.32 ± 1.38 % Injected Dose per Organ; % Injected Dose per Organ, Brain ([1]; i.v., 15 min): 0.04 ± 0.01 % Injected Dose per Organ; % Injected Dose per Organ, Heart ([1]; i.v., 15 min): 0.36 ± 0.03 % Injected Dose per Organ; % Injected Dose per Organ, Kidney (one) ([1]; i.v., 15 min): 1.89 ± 0.40 % Injected Dose per Organ; % Injected Dose per Organ, Liver ([1]; i.v., 15 min): 20.33 ± 1.11 % Injected Dose per Organ; % Injected Dose per Organ, Lungs ([1]; i.v., 15 min): 0.50 ± 0.05 % Injected Dose per Organ; % Injected Dose per Organ, Spleen ([1]; i.v., 15 min): 0.11 ± 0.02 % Injected Dose per Organ; % Injected Dose per Gram Tissue, Blood ([1]; i.v., 120 min): 0.03 ± 0.01 % Injected Dose per Gram Tissu; % Injected Dose per Gram Tissue, Brain ([1]; i.v., 120 min): 0.01 ± 0.01 % Injected Dose per Gram Tissu; % Injected Dose per Gram Tissue, Heart ([1]; i.v., 120 min): 0.28 ± 0.05 % Injected Dose per Gram Tissu; % Injected Dose per Gram Tissue, Kidney (one) ([1]; i.v., 120 min): 0.51 ± 0.10 % Injected Dose per Gram Tissu; % Injected Dose per Gram Tissue, Liver ([1]; i.v., 120 min): 0.83 ± 0.15 % Injected Dose per Gram Tissu; % Injected Dose per Gram Tissue, Lungs ([1]; i.v., 120 min): 0.08 ± 0.02 % Injected Dose per Gram Tissu; % Injected Dose per Gram Tissue, Spleen ([1]; i.v., 120 min): 0.06 ± 0.01 % Injected Dose per Gram Tissu; % Injected Dose per Organ, Blood ([1]; i.v., 120 min): 0.34 ± 0.02 % Injected Dose per Organ; % Injected Dose per Organ, Brain ([1]; i.v., 120 min): 0.01 ± 0.01 % Injected Dose per Organ; % Injected Dose per Organ, Heart ([1]; i.v., 120 min): 0.19 ± 0.03 % Injected Dose per Organ; % Injected Dose per Organ, Kidney (one) ([1]; i.v., 120 min): 0.42 ± 0.04 % Injected Dose per Organ; % Injected Dose per Organ, Liver ([1]; i.v., 120 min): 6.90 ± 1.07 % Injected Dose per Organ; % Injected Dose per Organ, Lungs ([1]; i.v., 120 min): 0.10 ± 0.01 % Injected Dose per Organ; % Injected Dose per Organ, Spleen ([1]; i.v., 120 min): 0.04 ± 0.01 % Injected Dose per Organ; % injected dose in heart, 2 h ([1]; i.v., 2 h, preliminary studies): 0.19 ± 0.03 % injected dose; Heart/Blood ([1]; ratio, i.v., 1 min): 0.53 ± 0.04; Heart/Liver ([1]; ratio, i.v., 1 min): 0.41 ± 0.04; Heart/Lungs ([1]; ratio, i.v., 1 min): 0.79 ± 0.05; Heart/Blood ([1]; ratio, i.v., 15 min): 0.74 ± 0.03; Heart/Liver ([1]; ratio, i.v., 15 min): 0.22 ± 0.01; Heart/Lungs ([1]; ratio, i.v., 15 min): 1.03 ± 0.20; Heart/Blood ([1]; ratio, i.v., 120 min): 10.29 ± 2.64; Heart/Liver ([1]; ratio, i.v., 120 min): 0.34 ± 0.05; Heart/Lungs ([1]; ratio, i.v., 120 min): 3.49 ± 0.37; log P ([2]; 1-octanol / isotonic Tris buffer pH 7.0): 0.24

**Q.** Which “% injected dose in heart, 1 min” value ([1]; in vivo, iv) does the source give for `COc1ccc(C=NCCCNCCNCCCN=Cc2ccc(OC)cc2[O-])c([O-])c1.[67Ga+3]` [(4-MeOSal)2 BAPEN, ^67 GaL^+ L = [bis(4-methoxysalicylaldimino)-N,N'-bis(3-aminopropyl)-ethylenediamine]] here?
**A.** 0.67 ± 0.08 % injected dose

**Q.** And the “% injected dose in heart, 2 h” value ([1]; in vivo, iv)?
**A.** 0.65 ± 0.05 % injected dose

**Q.** And the “% Injected Dose per Gram Tissue, Blood” value ([1]; in vivo, iv, 1 min)?
**A.** 0.32 ± 0.02

**Q.** What about the “% Injected Dose per Gram Tissue, Brain” value ([1]; in vivo, iv, 1 min) of the same compound?
**A.** 0.02 ± 0.01

**Q.** And the “% Injected Dose per Gram Tissue, Heart” value ([1]; in vivo, iv, 1 min)?
**A.** 0.96 ± 0.07

**Q.** And the “% Injected Dose per Gram Tissue, Kidney (one)” value ([1]; in vivo, iv, 1 min)?
**A.** 11.08 ± 0.88

**Q.** And the “% Injected Dose per Gram Tissue, Liver” value ([1]; in vivo, iv, 1 min)?
**A.** 3.05 ± 0.27

**Q.** What about the “% Injected Dose per Gram Tissue, Lungs” value ([1]; in vivo, iv, 1 min) of the same compound?
**A.** 0.91 ± 0.09

**Q.** And the “% Injected Dose per Gram Tissue, Spleen” value ([1]; in vivo, iv, 1 min)?
**A.** 0.31 ± 0.05

**Q.** What about the Heart/Blood ([1]; in vivo, iv, 1 min) of the same compound?
**A.** 2.99 ± 0.15

**Q.** What about the “% Injected Dose per Gram Tissue, Blood” value ([1]; in vivo, iv, 2 h) of the same compound?
**A.** 0.03 ± 0.01

**Q.** What about the “% Injected Dose per Gram Tissue, Brain” value ([1]; in vivo, iv, 2 h) of the same compound?
**A.** 0.01 ± 0.003

**Q.** What about the “% Injected Dose per Gram Tissue, Heart” value ([1]; in vivo, iv, 2 h) of the same compound?
**A.** 0.92 ± 0.07

**Q.** And the “% Injected Dose per Gram Tissue, Kidney (one)” value ([1]; in vivo, iv, 2 h)?
**A.** 2.19 ± 0.08

**Q.** What about the “% Injected Dose per Gram Tissue, Liver” value ([1]; in vivo, iv, 2 h) of the same compound?
**A.** 0.63 ± 0.20

**Q.** What about the “% Injected Dose per Gram Tissue, Lungs” value ([1]; in vivo, iv, 2 h) of the same compound?
**A.** 0.32 ± 0.02

**Q.** And the “% Injected Dose per Gram Tissue, Spleen” value ([1]; in vivo, iv, 2 h)?
**A.** 0.17 ± 0.03

**Q.** What about the Heart/Blood ([1]; in vivo, iv, 2 h) of the same compound?
**A.** 30.58 ± 2.22

**Q.** What about the “% Injected Dose per Gram Tissue, Blood” value ([1]; in vivo, iv, […]) of the same compound?
**A.** 0.06 ± 0.01

**Q.** And the “% Injected Dose per Gram Tissue, Brain” value ([1]; in vivo, iv, […])?
**A.** 0.01 ± 0.001

**Q.** And the “% Injected Dose per Gram Tissue, Heart” value ([1]; in vivo, iv, […])?
**A.** 1.01 ± 0.08

**Q.** And the “% Injected Dose per Gram Tissue, Kidney (one)” value ([1]; in vivo, iv, […])?
**A.** 4.47 ± 0.62

**Q.** What about the “% Injected Dose per Gram Tissue, Liver” value ([1]; in vivo, iv, […]) of the same compound?
**A.** 1.71 ± 0.40

**Q.** And the “% Injected Dose per Gram Tissue, Lungs” value ([1]; in vivo, iv, […])?
**A.** 0.38 ± 0.05

**Q.** What about the “% Injected Dose per Gram Tissue, Spleen” value ([1]; in vivo, iv, […]) of the same compound?
**A.** 0.22 ± 0.02

**Q.** And the Heart/Blood ([1]; in vivo, iv, […])?
**A.** 17.62 ± 0.31

**Q.** What about the “log P” value ([2]; octanol/tris buffer, pH 7) of the same compound?
**A.** 0.80
